Holding throughout (format): cell-based
For one assay, the system named is COLO205 (colon). The assay is described as follows: Inhibition of cell proliferation, CellTiter-Glo, COLO205. Conditions: Homo sapiens, COLO 205, 72 h. In short, it runs like this:
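Exponentially growing COLO205 cells in medium with 10% FBS were plated below 2000 cells/well at 37 °C, 5% CO2. Untreated wells served as controls.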

Assay [1] has as its system NCI-H929 (multiple myeloma). The assay is described as follows: Inhibition of cell proliferation, CellTiter-Glo, NCI-H929. The note with it: Homo sapiens, 72 h. Put shortly: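 Cells were grown in medium with 10% FBS at 37° C, 5% CO2. Cell number was read as CellTiter-Glo luminescence (cellular ATP), with untreated wells as control.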
In assay [2] the target is T1, human IGF-1R (NIH-3T3 cells over expressing human IGF-1R) (Homo sapiens, UniProt P08069).
T1 construct: expressed in transfected cells; host or cells: NIH-3T3 (mouse fibroblasts)
The assay is described as follows: IGF-1R cellular autophosphorylation (DELFIA). The note with it: IGF-1 stimulated. In short, it runs like this:
(§1)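 Read-out: DELFIA on lysates, receptor-specific capture antibody plus europium-labelled anti-phosphotyrosine, reported as % of IGF-1- or insulin-stimulated signal. Transfected NIH-3T3 cells got compound (30 uM–1.5 nM, 2 h) before a 15 min ligand pulse: IGF-1 30 ng/mL for IGF-1R, insulin 3 ug/mL for IR.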

Assay [3] concerns the target T2, IR (NIH-3T3 cells over expressing human IGF-1R or IR) (Homo sapiens, UniProt P06213).
T2 construct: expressed in transfected cells; host or cells: NIH-3T3 (mouse fibroblasts)
Nature of the assay: IR cellular autophosphorylation (DELFIA). The note with it: NIH-3T3 cells over expressing IR, insulin stimulated. In short, it runs like this:
as §1

Each structure is given as a SMILES string.

T2 sequence (P06213 28-1382): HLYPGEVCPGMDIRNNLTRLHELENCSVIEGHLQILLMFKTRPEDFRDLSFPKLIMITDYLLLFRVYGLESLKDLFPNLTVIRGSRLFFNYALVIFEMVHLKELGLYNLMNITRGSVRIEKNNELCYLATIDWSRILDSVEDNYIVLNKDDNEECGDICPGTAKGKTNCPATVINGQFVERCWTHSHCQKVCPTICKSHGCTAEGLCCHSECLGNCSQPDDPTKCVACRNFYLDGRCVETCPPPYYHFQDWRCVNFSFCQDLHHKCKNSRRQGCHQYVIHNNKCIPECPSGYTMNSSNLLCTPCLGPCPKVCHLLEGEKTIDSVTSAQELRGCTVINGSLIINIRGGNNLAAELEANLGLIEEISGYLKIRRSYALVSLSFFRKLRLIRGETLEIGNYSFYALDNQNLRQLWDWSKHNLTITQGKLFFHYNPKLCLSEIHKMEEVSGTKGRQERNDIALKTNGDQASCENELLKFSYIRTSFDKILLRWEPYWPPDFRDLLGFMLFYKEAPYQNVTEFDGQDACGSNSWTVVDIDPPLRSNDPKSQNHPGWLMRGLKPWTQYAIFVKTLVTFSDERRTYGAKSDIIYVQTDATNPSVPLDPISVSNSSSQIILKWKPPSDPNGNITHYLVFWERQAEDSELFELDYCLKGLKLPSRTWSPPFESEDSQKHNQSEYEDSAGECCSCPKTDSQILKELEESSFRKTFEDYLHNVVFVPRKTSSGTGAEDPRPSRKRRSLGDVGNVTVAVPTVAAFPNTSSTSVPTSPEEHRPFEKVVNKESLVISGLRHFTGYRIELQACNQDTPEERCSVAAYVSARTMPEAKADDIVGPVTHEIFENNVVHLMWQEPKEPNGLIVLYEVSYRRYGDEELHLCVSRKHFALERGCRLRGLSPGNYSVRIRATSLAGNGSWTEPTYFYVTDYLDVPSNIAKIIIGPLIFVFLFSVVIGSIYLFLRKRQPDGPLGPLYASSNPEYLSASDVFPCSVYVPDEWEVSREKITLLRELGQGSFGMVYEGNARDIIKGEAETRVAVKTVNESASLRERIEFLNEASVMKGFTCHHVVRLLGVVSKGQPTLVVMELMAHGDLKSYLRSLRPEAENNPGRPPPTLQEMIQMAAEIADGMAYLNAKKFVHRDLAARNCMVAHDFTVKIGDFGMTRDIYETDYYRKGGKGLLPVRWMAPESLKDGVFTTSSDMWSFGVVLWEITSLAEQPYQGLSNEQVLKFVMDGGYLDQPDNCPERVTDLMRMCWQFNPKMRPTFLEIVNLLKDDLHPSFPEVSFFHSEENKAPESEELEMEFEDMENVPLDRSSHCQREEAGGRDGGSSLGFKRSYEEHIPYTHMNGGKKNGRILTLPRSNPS
T1 sequence (P08069 31-1367): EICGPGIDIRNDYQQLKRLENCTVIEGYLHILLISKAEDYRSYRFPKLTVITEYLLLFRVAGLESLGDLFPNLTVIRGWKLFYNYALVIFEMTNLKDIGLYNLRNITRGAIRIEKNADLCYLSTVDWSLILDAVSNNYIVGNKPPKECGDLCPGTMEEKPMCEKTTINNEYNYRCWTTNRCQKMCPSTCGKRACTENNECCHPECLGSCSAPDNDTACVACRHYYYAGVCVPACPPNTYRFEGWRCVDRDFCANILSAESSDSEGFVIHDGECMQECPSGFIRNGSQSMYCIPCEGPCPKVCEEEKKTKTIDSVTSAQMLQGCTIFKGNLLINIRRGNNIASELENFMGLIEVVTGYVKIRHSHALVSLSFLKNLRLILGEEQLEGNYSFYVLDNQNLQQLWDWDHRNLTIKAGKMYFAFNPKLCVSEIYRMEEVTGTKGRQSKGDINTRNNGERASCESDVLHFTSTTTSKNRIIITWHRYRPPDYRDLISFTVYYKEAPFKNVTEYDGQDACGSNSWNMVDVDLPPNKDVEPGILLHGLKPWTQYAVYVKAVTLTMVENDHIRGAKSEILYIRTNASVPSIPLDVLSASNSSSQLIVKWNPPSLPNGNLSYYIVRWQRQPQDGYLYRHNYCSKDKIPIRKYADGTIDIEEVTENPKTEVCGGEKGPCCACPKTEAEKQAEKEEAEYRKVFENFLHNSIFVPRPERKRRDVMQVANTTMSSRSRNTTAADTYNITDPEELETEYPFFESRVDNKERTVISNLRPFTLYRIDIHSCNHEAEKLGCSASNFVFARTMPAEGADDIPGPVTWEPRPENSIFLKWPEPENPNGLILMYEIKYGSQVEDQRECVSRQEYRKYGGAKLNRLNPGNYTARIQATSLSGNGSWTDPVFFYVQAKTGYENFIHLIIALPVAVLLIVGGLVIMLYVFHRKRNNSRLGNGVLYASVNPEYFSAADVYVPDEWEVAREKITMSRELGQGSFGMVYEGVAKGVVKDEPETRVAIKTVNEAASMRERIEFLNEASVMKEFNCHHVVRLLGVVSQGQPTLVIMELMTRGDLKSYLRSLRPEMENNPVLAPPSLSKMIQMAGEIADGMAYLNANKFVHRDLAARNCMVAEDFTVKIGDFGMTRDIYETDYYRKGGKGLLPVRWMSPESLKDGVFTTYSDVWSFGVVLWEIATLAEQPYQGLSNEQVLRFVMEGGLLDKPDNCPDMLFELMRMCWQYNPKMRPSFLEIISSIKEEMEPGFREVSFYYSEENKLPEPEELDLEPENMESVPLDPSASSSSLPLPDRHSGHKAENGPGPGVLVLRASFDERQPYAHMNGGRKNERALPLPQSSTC

`COc1cc(N2CCC(N3CCN(CCS(C)(=O)=O)CC3)CC2)c(Cl)cc1Nc1nccc(-c2c(-c3cccc(C(=O)Nc4c(F)cccc4F)c3)nc3ccccn23)n1` [Example 114, 3-[3-(2-{[5-chloro-2-(methyloxy)-4-(4-{4-[2-(methylsulfonyl)ethyl]-1-piperazinyl}-1-piperidinyl)phenyl]amino}-4-pyrimidinyl)imidazo[1,2-a]pyridin-2-yl]-N-(2,6-difluorophenyl)-benzamide]: the 50% inhibitory concentration (IC50) in the assay on COLO205 (colon) is 250 to 1000 nM; in assay [1] it was below 250 nM; in assay [2], below 100 nM; in assay [3] it was below 100 nM.

As to `CCCN1CCC(c2ccc(Nc3nccc(-c4c(-c5cccc(C(=O)Nc6c(F)cccc6F)c5)nc5ccccn45)n3)c(OC)c2)CC1` [Example 138, N-(2,6-difluorophenyl)-3-[3-(2-{[2-(methyloxy)-4-(1-propyl-4-piperidinyl)phenyl]amino}-4-pyrimidinyl)imidazo[1,2-a]pyridin-2-yl]benzamide], the IC50 with COLO205 (colon) was 250 to 1000 nM; in assay [1], below 250 nM; in assay [2], below 100 nM; in assay [3], below 100 nM.

On to `COc1cc(N2CCC(N3CCC(CCS(C)(=O)=O)CC3)CC2)ccc1Nc1nccc(-c2c(-c3ccc(OC)c(C(=O)Nc4c(F)cccc4F)c3)nc3ccccn23)n1` [Example 102, N-(2,6-difluorophenyl)-2-(methyloxy)-5-(3-{2-[(2-(methyloxy)-4-{4-[2-(methylsulfonyl)ethyl]-1,4′-bipiperidin-1′-yl}phenyl)amino]-4-pyrimidinyl}imidazo[1,2-a]pyridin-2-yl)benzamide], for which the IC50 in the assay on COLO205 (colon) was 250 to 1000 nM; in assay [1], below 250 nM; in assay [2], below 100 nM; in assay [3], below 100 nM.

Regarding `COc1cc(N2CCC(N3CCCCC3)CC2)ccc1Nc1nccc(-c2c(-c3ccc(OC)c(C(=O)Nc4c(F)cccc4F)c3)nc3cc(F)ccn23)n1` [Example 198, 5-[3-(2-{[4-(1,4′-bipiperidin-1′-yl)-2-(methyloxy)phenyl]amino}-4-pyrimidinyl)-7-fluoroimidazo[1,2-a]pyridin-2-yl]-N-(2,6-difluorophenyl)-2-(methyloxy)benzamide], the IC50 in the assay with COLO205 (colon) was 250 to 1000 nM; in assay [1] it was below 250 nM; in assay [2] it was below 100 nM; in assay [3] it was below 100 nM.

As to `CCOc1ccc(-c2nc3ccccn3c2-c2ccnc(Nc3ccc(N4CCN(C(C)C)CC4)cc3OC)n2)cc1C(=O)Nc1c(F)cccc1F` [Example 177, N-(2,6-difluorophenyl)-2-(ethyloxy)-5-[3-(2-{[4-[4-(1-methylethyl)-1-piperazinyl]-2-(methyloxy)phenyl]amino}-4-pyrimidinyl)imidazo[1,2-a]pyridin-2-yl]benzamide], the IC50 was 250 to 1000 nM in the assay with COLO205 (colon), below 250 nM in assay [1], below 100 nM in assay [2] and below 100 nM in assay [3].

On to `CC(C)Cc1cc(N2CCC(N3CCCCC3)CC2)ccc1Nc1nccc(-c2c(-c3cccc(C(=O)Nc4c(F)cccc4F)c3)nc3ccccn23)n1` [Example 42, 3-[3-(2-{[4-(1,4′-bidideridin-1′-yl)-2-(2-methylpropyl)phenyl]amino}-4-pyrimidinyl)imidazo[1,2-a]pyridin-2-yl]-N-(2,6-difluorophenyl)benzamide], for which the 50% inhibitory concentration (IC50) is above 1000 nM in the assay on COLO205 (colon), above 1000 nM in assay [1], below 100 nM in assay [2] and above 500 nM in assay [3].

As for `COCCN1CCN(c2cc(OC)c(Nc3nccc(-c4c(-c5ccc(OC)c(C(=O)Nc6c(F)cccc6F)c5)nc5ccccn45)n3)cc2C)CC1` [Example 242, N-(2,6-difluorophenyl)-5-(3-{2-[(5-methyl-2-(methyloxy)-4-{4-[2-(methyloxy)ethyl]-1-piperazinyl}phenyl)amino]-4-pyrimidinyl}imidazo[1,2-a]pyridin-2-yl)-2-(methyloxy)benzamide], the IC50 in the assay with COLO205 (colon) is 250 to 1000 nM; in assay [1], below 250 nM; in assay [2], below 100 nM; in assay [3] it was below 100 nM.

Regarding `CCCN1CCC(c2ccc(Nc3nccc(-c4c(-c5ccc(OC)c(C(=O)Nc6c(F)cccc6F)c5)nc5ccccn45)n3)c(OCC)c2)CC1` [Example 154, N-(2,6-difluorophenyl)-5-[3-(2-{[2-(ethyloxy)-4-(1-propyl-4-piperidinyl)phenyl]amino}-4-pyrimidinyl)imidazo[1,2-a]pyridin-2-yl]-2-(methyloxy)benzamide], the IC50 was 250 to 1000 nM with COLO205 (colon), below 250 nM in assay [1], below 100 nM in assay [2] and below 100 nM in assay [3].

With `COc1cc(N2CCC(N3CCN(CCS(C)(=O)=O)CC3)CC2)ccc1Nc1nccc(-c2c(-c3ccc(OC)c(C(=O)Nc4c(F)cccc4F)c3)nc3ccccn23)n1` [Example 65, N-(2,6-difluorophenyl)-2-(methyloxy)-5-[3-(2-{[2-(methyloxy)-4-(4-{4-[2-(methylsulfonyl)-ethyl]-1-piperazinyl}-1-piperidinyl)phenyl]amino}-4-pyrimidinyl)imidazo-[1,2-a]pyridin-2-yl]benzamide], the IC50 in the assay with COLO205 (colon) is 250 to 1000 nM; in assay [1], below 250 nM; in assay [2], below 100 nM; in assay [3], below 100 nM.

For the compound `CCCc1cc(N2CCC(N3CCCCC3)CC2)ccc1Nc1nccc(-c2c(-c3cccc(C(=O)Nc4c(F)cccc4F)c3)nc3ccccn23)n1` [Example 41, 3-[3-(2-{[4-(1,4′-bipiperidin-1′-yl)-2-propylphenyl]amino}-4-pyrimidinyl)imidazo[1,2-a]pyridin-2-yl]-N-(2,6-difluorophenyl)benzamid], the IC50 with COLO205 (colon) was 250 to 1000 nM; in assay [1], 250 to 1000 nM; in assay [2], below 100 nM; in assay [3], 100 to 500 nM.

With `CCc1cc(Nc2nccc(-c3c(-c4ccc(OC)c(C(=O)Nc5c(F)cccc5F)c4)nc4ccccn34)n2)c(OC)cc1N1CCC(CCS(C)(=O)=O)CC1` [Example 207, N-(2,6-difluorophenyl)-5-(3-{2-[(5-ethyl-2-(methyloxy)-4-{4-[2-(methylsulfonyl)ethyl]-1-piperidinyl}phenyl)amino]-4-pyrimidinyl}imidazo[1,2-a]pyridin-2-yl)-2-(methyloxy)benzamide], the IC50 was below 250 nM in the assay on COLO205 (colon), below 250 nM in assay [1], below 100 nM in assay [2] and below 100 nM in assay [3].

For `CCOc1cc(N2CCN(CCS(C)(=O)=O)CC2)ccc1Nc1nccc(-c2c(-c3ccc(OC)c(C(=O)Nc4c(F)cccc4F)c3)nc3ccccn23)n1` [Example 143, N-(2,6-difluorophenyl)-5-(3-{2-[(2-(ethyloxy)-4-{4-[2-(methylsulfonyl)ethyl)-1-piperazinyl}phenyl)amino]-4-pyrimidinyl}imidazo[1,2-a]pyridin-2-yl)-2-(methyloxy)benzamide], the IC50 with COLO205 (colon) is 250 to 1000 nM; in assay [1] it was below 250 nM; in assay [2], below 100 nM; in assay [3], below 100 nM.

For the compound `COc1cc(N2CCC(N3CCN(CCS(C)(=O)=O)CC3)CC2)ccc1Nc1nccc(-c2c(-c3cccc(C(=O)Nc4c(F)cccc4F)c3)nc3c(F)cccn23)n1` [Example 193, N-(2,6-difluorophenyl)-3-[8-fluoro-3-(2-{[2-(methyloxy)-4-(4-{4-[2-(methylsulfonyl)ethyl]-1-piperazinyl}-1-piperidinyl)phenyl]amino}-4-pyrimidinyl)imidazo[1,2-a]pyridin-2-yl]benzamide], the IC50 in the assay with COLO205 (colon) was above 1000 nM; in assay [1] it was below 250 nM; in assay [2] it was below 100 nM; in assay [3] it was 100 to 500 nM.

The values above are taken from patent US20100216779A1 (GLAXOSMITHKLINE LLC, priority 2007, published 2010).
